Assay results published in US6355799B1, “Substituted benzene compounds, process for their preparation, and herbicidal and defoliant compositions containing them” (ISK Americas Incorporated, priority 1997, dated 2002).

Legend:
Assay type in all cases: in vivo
[1] = tested on: redroot pigweed (Amaranthus retroflexus, AMARE); assay: Pre-emerge test, greenhouse herbicide activity screening; details: phytotoxicity rating 0-100, 14 days after application
Method in brief: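 Sandy loam pots; pre-emerge: sown 1 d pre-spray, surface-watered after, then bottom-watered. Post-emerge: sown 8–21 d before, 2–3 leaf stage, + 0.25% v/v NIS, bottom-watered. Acetone, 187 l/ha track spray, 15–1000 g ai/ha. 0–100 injury score, day 14.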

[2] = tested on: barnyardgrass (Echinochloa crus-galli, ECHCG); assay: as above; details: phytotoxicity rating 0-100, 14 days after application
Method in brief: (§1)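 Rating: 0–100 visual injury, 14 DAA. Application: acetone, 187 l/ha, 15–1000 g ai/ha, flat-fan track sprayer with nozzle 40–45 cm above soil or canopy. Post-emerge runs used 0.25% v/v surfactant on 2–3 leaf plants.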

[3] = tested on: common ragweed (Ambrosia artemisizfolia L., AMBEL); assay: as above; details: phytotoxicity rating 0-100, 14 days after application
Method in brief: as §1

[4] = tested on: green foxtail (Setaria viridis, SETVI); assay: as above; details: phytotoxicity rating 0-100, 14 days after application
Method in brief: as §1

[5] = tested on: ivyleaf morningglory (Ipomoea hederacea, IPOHE); assay: as above; details: phytotoxicity rating 0-100, 14 days after application
Method in brief: as §1

[6] = tested on: johnsongrass (Sorghum halepense, SORHA); assay: as above; details: phytotoxicity rating 0-100, 14 days after application
Method in brief: as §1

[7] = tested on: lambsquarters (Chenopodium album, CHEAL); assay: as above; details: phytotoxicity rating 0-100, 14 days after application
Method in brief: as §1

[8] = tested on: large crabgrass (Digitaria sanguinalis, DIGSA); assay: as above; details: phytotoxicity rating 0-100, 14 days after application
Method in brief: as §1

[9] = tested on: sicklepod (Cassia obtusifolia, CASOB); assay: as above; details: phytotoxicity rating 0-100, 14 days after application
Method in brief: as §1

[10] = tested on: velvetleaf (Abutilon theophrasti, ABUTH); assay: as above; details: phytotoxicity rating 0-100, 14 days after application
Method in brief: as §1

[11] = tested on: field corn (Zea mays L., var. Dekalb 535, CORN); assay: Pre-emerge test, crop safety; details: crop damage rating 0-100, 14 days after application
Method in brief: (§2)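 Fourteen days after spraying, crop and weed injury was graded visually from 0, no effect, to 100, every plant dead. Test substances were dissolved in acetone and applied at 15–1000 g ai/ha with a flat-fan nozzle. Application was either pre-emergence, one day after sowing, or post-emergence at the 2–3 leaf stage.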

[12] = tested on: upland rice (Oryza sp., var. Tebonnet, RICE); assay: Pre-emerge test, crop safety; details: crop damage rating 0-100, 14 days after application
Method in brief: as §2

[13] = tested on: barnyardgrass (Echinochloa crus-galli, ECHCG); assay: Post-emerge test, greenhouse herbicide activity screening; details: post-emerge, 14 days after application, rating scale 0-100
Method in brief: as §1

[14] = tested on: green foxtail (Setaria viridis, SETVI); assay: as above; details: post-emerge, 14 days after application, rating scale 0-100
Method in brief: as §1

[15] = tested on: ivyleaf morningglory (Ipomoea hederacea, IPOHE); assay: as above; details: post-emerge, 14 days after application, rating scale 0-100
Method in brief: as §1

[16] = tested on: johnsongrass (Sorghum halepense, SORHA); assay: as above; details: post-emerge, 14 days after application, rating scale 0-100
Method in brief: as §1

[17] = tested on: lambsquarters (Chenopodium album, CHEAL); assay: as above; details: post-emerge, 14 days after application, rating scale 0-100
Method in brief: as §1

[18] = tested on: large crabgrass (Digitaria sanguinalis, DIGSA); assay: as above; details: post-emerge, 14 days after application, rating scale 0-100
Method in brief: as §1

[19] = tested on: redroot pigweed (Amaranthus retroflexus, AMARE); assay: as above; details: post-emerge, 14 days after application
Method in brief: as §1

[20] = tested on: sicklepod (Cassia obtusifolia, CASOB); assay: as above; details: post-emerge, 14 days after application, rating scale 0-100
Method in brief: as §1

[21] = tested on: velvetleaf (Abutilon theophrasti, ABUTH); assay: as above; details: post-emerge, 14 days after application, rating scale 0-100
Method in brief: as §1

[22] = tested on: field corn (Zea mays L., var. Dekalb 535, CORN); assay: Post-emerge test, crop safety; details: post-emerge, 14 days after application, rating scale 0-100
Method in brief: (§3)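 Plants grown in 10 cm pots of sandy loam mix received acetone-dissolved compounds through a moving flat-fan nozzle. Doses ranged from 15 to 1000 g ai/ha. Pre-emerge pots were seeded one day earlier, post-emerge pots 8–21 days earlier. Fourteen days on, each pot was graded 0–100 for damage.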

[23] = tested on: upland rice (Oryza sp., var. Tebonnet, RICE); assay: Post-emerge test, crop safety; details: post-emerge, 14 days after application, rating scale 0-100
Method in brief: as §3

[24] = 63 g ai/ha, rating scale 0-100 (0 no damage, 100 complete death)
[25] = 250 g ai/ha, rating scale 0-100

For CCCCCC(=O)Nc1c(OC)c(Cl)cc(F)c1-n1c(=O)cc(C(F)(F)F)n(C)c1=O [2-198], the “Pre-emerge Herbicidal Activity AMARE” value ([1]; 63 g ai/ha) was 100, the “Pre-emerge Herbicidal Activity AMARE” value ([1]; 250 g ai/ha) was 100 and the “Pre-emerge Herbicidal Activity ECHCG” value ([2]; 63 g ai/ha) was 50. The “Pre-emerge Herbicidal Activity ECHCG” value ([2]; 250 g ai/ha) was 100, the “Pre-emerge Herbicidal Activity AMBEL” value ([3]; 63 g ai/ha) was 100 and the “Pre-emerge Herbicidal Activity AMBEL” value ([3]; 250 g ai/ha) was 100. For the same compound, the “Pre-emerge Herbicidal Activity SETVI” value ([4]; 63 g ai/ha) was 90, the “Pre-emerge Herbicidal Activity SETVI” value ([4]; 250 g ai/ha) was 100 and the “Pre-emerge Herbicidal Activity IPOHE” value ([5]; 63 g ai/ha) was 100. The “Pre-emerge Herbicidal Activity IPOHE” value ([5]; 250 g ai/ha) was 100, the “Pre-emerge Herbicidal Activity SORHA” value ([6]; 63 g ai/ha) was 50 and the “Pre-emerge Herbicidal Activity SORHA” value ([6]; 250 g ai/ha) was 99. For the same compound, the “Pre-emerge Herbicidal Activity CHEAL” value ([7]; 63 g ai/ha) was 100, the “Pre-emerge Herbicidal Activity CHEAL” value ([7]; 250 g ai/ha) was 100 and the “Pre-emerge Herbicidal Activity DIGSA” value ([8]; 63 g ai/ha) was 100. For the same compound, the “Pre-emerge Herbicidal Activity DIGSA” value ([8]; 250 g ai/ha) was 100, the “Pre-emerge Herbicidal Activity CASOB” value ([9]; 63 g ai/ha) was 50 and the “Pre-emerge Herbicidal Activity CASOB” value ([9]; 250 g ai/ha) was 100. For the same compound, the “Pre-emerge Herbicidal Activity ABUTH” value ([10]; 63 g ai/ha) was 100, the “Pre-emerge Herbicidal Activity ABUTH” value ([10]; 250 g ai/ha) was 100 and the “Pre-emerge Herbicidal Activity CORN” value ([11]; 63 g ai/ha) was 50. The “Pre-emerge Herbicidal Activity CORN” value ([11]; 250 g ai/ha) was 90, the “Pre-emerge Herbicidal Activity RICE” value ([12]; 63 g ai/ha) was 30 and the “Pre-emerge Herbicidal Activity RICE” value ([12]; 250 g ai/ha) was 80. For the same compound, the “phytotoxicity rating ECHCG” value ([13]; 63 g ai/ha) was 5, the “phytotoxicity rating ECHCG” value ([13]; 250 g ai/ha) was 5 and the “phytotoxicity rating SETVI” value ([14]; 63 g ai/ha) was 10. The “phytotoxicity rating SETVI” value ([14]; 250 g ai/ha) was 10, the “phytotoxicity rating IPOHE” value ([15]; 63 g ai/ha) was 80 and the “phytotoxicity rating IPOHE” value ([15]; 250 g ai/ha) was 100. For the same compound, the “phytotoxicity rating SORHA” value ([16]; 63 g ai/ha) was 0, the “phytotoxicity rating SORHA” value ([16]; 250 g ai/ha) was 50 and the “phytotoxicity rating CHEAL” value ([17]; 63 g ai/ha) was 80. For the same compound, the “phytotoxicity rating CHEAL” value ([17]; 250 g ai/ha) was 90, the “phytotoxicity rating DIGSA” value ([18]; 63 g ai/ha) was 10 and the “phytotoxicity rating DIGSA” value ([18]; 250 g ai/ha) was 10. For the same compound, the “phytotoxicity rating AMARE” value [19, 24] was 80, the “phytotoxicity rating AMARE” value [19, 25] was 95 and the “phytotoxicity rating CASOB” value ([20]; 63 g ai/ha) was 50. For the same compound, the “phytotoxicity rating CASOB” value ([20]; 250 g ai/ha) was 30, the “phytotoxicity rating ABUTH” value ([21]; 63 g ai/ha) was 80 and the “phytotoxicity rating ABUTH” value ([21]; 250 g ai/ha) was 100. For the same compound, the “phytotoxicity rating CORN (crop damage)” value ([22]; 63 g ai/ha) was 10, the “phytotoxicity rating CORN (crop damage)” value ([22]; 250 g ai/ha) was 40 and the “phytotoxicity rating RICE (crop damage)” value ([23]; 63 g ai/ha) was 10. For the same compound, the “phytotoxicity rating RICE (crop damage)” value ([23]; 250 g ai/ha) was 30.

For Cn1c(C(F)(F)F)cc(=O)n(-c2c(F)cc(Cl)c(OCC#N)c2NC(=O)c2ccc3ccccc3c2)c1=O [2-200], the “Pre-emerge Herbicidal Activity AMARE” value ([1]; 63 g ai/ha) was 100, the “Pre-emerge Herbicidal Activity AMARE” value ([1]; 250 g ai/ha) was 100 and the “Pre-emerge Herbicidal Activity ECHCG” value ([2]; 63 g ai/ha) was 99. The “Pre-emerge Herbicidal Activity ECHCG” value ([2]; 250 g ai/ha) was 100, the “Pre-emerge Herbicidal Activity AMBEL” value ([3]; 63 g ai/ha) was 100 and the “Pre-emerge Herbicidal Activity AMBEL” value ([3]; 250 g ai/ha) was 100. The “Pre-emerge Herbicidal Activity SETVI” value ([4]; 63 g ai/ha) was 100, the “Pre-emerge Herbicidal Activity SETVI” value ([4]; 250 g ai/ha) was 100 and the “Pre-emerge Herbicidal Activity IPOHE” value ([5]; 63 g ai/ha) was 100. For the same compound, the “Pre-emerge Herbicidal Activity IPOHE” value ([5]; 250 g ai/ha) was 100, the “Pre-emerge Herbicidal Activity SORHA” value ([6]; 63 g ai/ha) was 100 and the “Pre-emerge Herbicidal Activity SORHA” value ([6]; 250 g ai/ha) was 100. The “Pre-emerge Herbicidal Activity CHEAL” value ([7]; 63 g ai/ha) was 100, the “Pre-emerge Herbicidal Activity CHEAL” value ([7]; 250 g ai/ha) was 100 and the “Pre-emerge Herbicidal Activity DIGSA” value ([8]; 63 g ai/ha) was 100. For the same compound, the “Pre-emerge Herbicidal Activity DIGSA” value ([8]; 250 g ai/ha) was 100, the “Pre-emerge Herbicidal Activity CASOB” value ([9]; 63 g ai/ha) was 80 and the “Pre-emerge Herbicidal Activity CASOB” value ([9]; 250 g ai/ha) was 100. The “Pre-emerge Herbicidal Activity ABUTH” value ([10]; 63 g ai/ha) was 100, the “Pre-emerge Herbicidal Activity ABUTH” value ([10]; 250 g ai/ha) was 100 and the “Pre-emerge Herbicidal Activity CORN” value ([11]; 63 g ai/ha) was 75. The “Pre-emerge Herbicidal Activity CORN” value ([11]; 250 g ai/ha) was 100, the “Pre-emerge Herbicidal Activity RICE” value ([12]; 63 g ai/ha) was 80 and the “Pre-emerge Herbicidal Activity RICE” value ([12]; 250 g ai/ha) was 100. For the same compound, the “phytotoxicity rating ECHCG” value ([13]; 63 g ai/ha) was 0, the “phytotoxicity rating ECHCG” value ([13]; 250 g ai/ha) was 0 and the “phytotoxicity rating SETVI” value ([14]; 63 g ai/ha) was 30. The “phytotoxicity rating SETVI” value ([14]; 250 g ai/ha) was 50, the “phytotoxicity rating IPOHE” value ([15]; 63 g ai/ha) was 100 and the “phytotoxicity rating IPOHE” value ([15]; 250 g ai/ha) was 100. The “phytotoxicity rating SORHA” value ([16]; 63 g ai/ha) was 0, the “phytotoxicity rating SORHA” value ([16]; 250 g ai/ha) was 0 and the “phytotoxicity rating CHEAL” value ([17]; 63 g ai/ha) was 100. For the same compound, the “phytotoxicity rating CHEAL” value ([17]; 250 g ai/ha) was 100, the “phytotoxicity rating DIGSA” value ([18]; 63 g ai/ha) was 0 and the “phytotoxicity rating DIGSA” value ([18]; 250 g ai/ha) was 0. The “phytotoxicity rating AMARE” value [19, 24] was 100, the “phytotoxicity rating AMARE” value [19, 25] was 100 and the “phytotoxicity rating CASOB” value ([20]; 63 g ai/ha) was 100. For the same compound, the “phytotoxicity rating CASOB” value ([20]; 250 g ai/ha) was 100, the “phytotoxicity rating ABUTH” value ([21]; 63 g ai/ha) was 100 and the “phytotoxicity rating ABUTH” value ([21]; 250 g ai/ha) was 100. The “phytotoxicity rating CORN (crop damage)” value ([22]; 63 g ai/ha) was 10, the “phytotoxicity rating CORN (crop damage)” value ([22]; 250 g ai/ha) was 20 and the “phytotoxicity rating RICE (crop damage)” value ([23]; 63 g ai/ha) was 10. For the same compound, the “phytotoxicity rating RICE (crop damage)” value ([23]; 250 g ai/ha) was 20.
